{
  "source": "patent US20070042997A1",
  "about": "“Medicament for treatment of dermal pigmentation” (priority 2003, published 2007)",
  "test_system": "melanocytes",
  "assay": "Proliferation inhibitory test against melanocyte caused by ultraviolet irradiation",
  "format": "cell-based",
  "conditions": "cultured melanocytes, compound at 1 μg/ml",
  "method": "Proliferation Inhibitory Test Against Melanocyte Caused by Ultraviolet Irradiation\nMelanocytes were cultured according to the authentic method, and the proliferation of melanocytes in the presence or absence of test drugs under the ultraviolet irradiation was measured.",
  "data": [
    {"smiles": "O=C(Nc1cc(C(F)(F)F)cc(C(F)(F)F)c1)c1cc(Cl)ccc1O", "note": "[Compound 50, N-[3,5-bis(trifluoromethyl)phenyl]-5-chloro-2-hydroxybenzamide]", "values": [
      {"measurement": "inhibition of transformation and proliferation of melanocyte under ultraviolet irradiation", "value": "almost completely inhibited"}
    ]}
  ]
}
